One assay concerns SK-OV-3 cell line. The class given is cell-based, human. The note with it: 4 h. The method, then:
(§1) Tumor cells were plated in 96-well flat-bottom microtitration plates (Nunc, Dutscher, Brumath, France) and incubated at 37° C. for 24 hours before treatment in 190 μl of drug-free culture medium supplemented or not with 10% FBS for adherent or suspension growing cell lines, respectively.
(§2) The adherent cell lines were washed once with 200 μl FBS-free culture medium before treatment. Tumor cells were incubated for 4 hours with 10 concentrations of compounds in ¼ dilution step with a top dose of 400 μM (range 4×10^−4 to 4×10^−10 M), with 1% (final concentration) Triton X-100 as positive control and FBS-free culture medium as negative control. The cells (190 μl) were incubated in a 200 μl final volume of FBS-free culture medium containing test substances at 37° C. under 5% CO2.
(§3) Three independent experiments were performed, each concentration being tested in quadruplicate. Control cells were treated with vehicle alone. At the end of treatments, the cytotoxic activity was evaluated by a MTS assay (see § 3.3.).
(§4) Like MTT, MTS is bioreduced by cells into a formazan product that is directly soluble in culture medium without processing, unlike MTT.
(§5) At the end of the cells treatment, 40 μl of a 0.22 μm filtered freshly combined solution of MTS (20 ml at 2 mg/ml, Ref G1111, Batch 235897, Exp March 2009, Promega, Charbonnières, France) and PMS (1 ml at 0.92 mg/ml, Ref P9625, Batch 065K0961, Sigma) in Dulbecco's Phosphate Buffered Saline (DPBS, Ref 17-513Q, Batch 6MB0152, Cambrex), were added in each well. Culture plates were incubated for 2 h at 37° C. Absorbency (OD) were measured at 490 nm in each well using VICTOR^3™ 1420 multilabeled counter (Wallac, PerkinElmer, Courtaboeuf, France).
(§6) IC50: drug concentration to obtain a 50% inhibition of cell proliferation.
(§7) The dose-response curves were plotted using XLFit 3 (IDBS, United Kingdom). The IC50 determination values were calculated using the XLFit 3 software from semi-log curves. Individual IC50 determination values as well as mean and SD values were generated.

A further assay has as its system T-47D cell line. In kind it is cell-based, human. The note with it: 4 h. The method, then: as §1, §2, §3, §4, §5, §6, §7
The next assay relates to human red blood cells. As to the kind of experiment: Haemolytic activity in vitro. In kind it is cell-based. The following applies: for Mean cell death (%): 1 h 37° C., 1% RBC. The protocol: Freshly collected human blood was centrifuged at 1500 rpm for 10 minutes in order to isolate the red blood cells. The red blood cells (RBC) were washed three times with PBS [35 mM phosphate buffer with 150 mM NaCl, pH 7.4] by centrifugation at 1500 rpm for 10 minutes, and adjusted to 10% haematocrit with PBS. LTX-315 solutions were added to give a final concentration range of the peptide from 1200 μg/ml to 1 μg/ml and an RBC concentration of 1%. The resulting suspension was incubated with agitation for one hour at 37° C. After incubation the suspension was centrifuged at 4000 rpm for 5 minutes, and the released haemoglobin were monitored by measuring the absorbance of the supernatant at 405 nm. PBS was used as negative control and assumed to cause no haemolysis. 0.1% Triton was used as positive control and assumed to cause complete haemolysis.
Released haemoglobin was monitored by measuring the absorbance of the supernatant at 405 nm, and percent haemolysis was calculated by the equation: % Haemolysis=[(A405 LTX-315−A405 PBS)/(A405 0.1% Triton X-100−A405 PBS)]×100
LTX-315 concentration corresponding to 50% haemolysis (EC50) was determined from a dose-response curve.

For assay [1], the system named is murine A20 B-cell lymphoma. As to the kind of experiment: Adoptive spleen cell transfer, A20 lymphoma model. The following applies: donors: 1 mg intratumoural once daily for 3 days. In kind it is in vivo, Balb/c mice. The protocol:
[…] Balb/c mice (n=32) were each inoculated with A20 cells (5 million in 50 μL s.c.) on the abdominal surface. Once tumours had reached 20 mm^2 they were injected with LTX-315 (1 mg) injected intratumourally, once daily for 3 days, in a volume of 50 μL. Tumour size (mm^2) and body weight were subsequently monitored and a further injection of LTX-315 was given if any tumour re-growth was observed. Subsequently, mice showing complete tumour regression were sacrificed and used as donors for transfer of splenocytes while naive donor mice were used as controls. Spleens from donor mice were excised and cells isolated. Naive receiver mice were irradiated and divided into 2 groups. Group 1 received isolated splenocytes from cured mice, whereas group 2 received isolated splenocytes from naive mice. Freshly prepared cells were injected (20×106 per 100 μl) via the tail vein. Twenty four hours later receiver mice were inoculated with 5 million murine A20 B-cell lymphoma cells on the abdominal surface as described above. Tumour size and body weight were monitored until the maximum tumour burden of ˜125 mm^2 was reached, or a serious adverse events occurred (i.e. wound formation due to tumour tissue necrosis) at which point mice were sacrificed.

Assay [2] deals with A375 cells. As to the kind of experiment: Bright field confocal live cell imaging. The class given is cell-based, human. The note with it: LTX-315 at IC-50 value, majority of the cells. The protocol: A375 cells were seeded at 10,000 cells/well in a complete media in Nunc Lab-Tec 8-wells chambered covered glass (Sigma) precoated with 25 μg/ml human fibronectin (Sigma) that were allowed to adhere overnight. Cells were washed twice with a serum-free RPMI, treated with peptide dissolved in RPMI and investigated using Bright on a Leica TCS SP5 confocal microscope, with a 63×/1.2 W objective. The microscope was equipped with an incubation chamber with CO2 and temperature control.

In assay [3] the test system is A375 cells. Put plainly: Fluorescence measurement of reactive oxygen species (ROS). In kind it is cell-based, human. The note with it: 15 minutes of incubation; concentration-dependent. The method, then:
A DCFDA cellular reactive oxygen species detection assay kit was purchased from Abcam®, and A375 cells seeded in a 96-well Costar black clear bottom plate with 20,000 cells per well incubated in 37° C. 16 hours prior to DCFDA assay. Cells were washed with a 100 μL/well of pre-warmed PBS one time, and incubated with 20 μM of DCFDA in a buffer solution supplied with the kit at 37° C. in a cell culture incubator for 45 min, and then washed again with a buffer solution of 100 μL/well. […] The fluorescence intensity was determined at an excitation wavelength of 485 nm and an emission wavelength of 530 nm on a FLUOstar Galaxy plate reader.

Non-standard residues stand in square brackets, D forms with d. Residues, ends and D or L forms follow the SMILES beside them. Dip = N[C@H](C(=O)O)C(c1ccccc1)c1ccccc1

Consider `NCCCC[C@H](NC(=O)[C@@H](NC(=O)[C@H](Cc1c[nH]c2ccccc12)NC(=O)[C@H](CCCCN)NC(=O)[C@H](CCCCN)NC(=O)[C@H](Cc1c[nH]c2ccccc12)NC(=O)[C@H](Cc1c[nH]c2ccccc12)NC(=O)[C@H](CCCCN)NC(=O)[C@@H](N)CCCCN)C(c1ccccc1)c1ccccc1)C(N)=O` [LTX-315, K-K-W-W-K-K-W-Dip-K-NH2] (H-KKWWKKW[Dip]K-NH2), for which the results for the concentration for half-maximal inhibition (IC50) in the assay with SK-OV-3 cell line, in the assay with T-47D cell line and in the assay with human red blood cells (red cells of human) were 7.16 ± 0.99 µM, 1180 ± 250 nM and not below 833 µM, respectively. For the same compound, the “Mean cell death (%)” value in the assay with human red blood cells (LTX-315 1 μg/ml) stood at 0.0%; in the assay with human red blood cells (LTX-315 10 μg/ml), 0.6%; with human red blood cells (LTX-315 50 μg/ml), 1.6%; with human red blood cells (LTX-315 100 μg/ml) it was 3.6%; in the assay on human red blood cells (LTX-315 500 μg/ml), 20.4%; in the assay with human red blood cells (LTX-315 1000 μg/ml), 38.2%. In addition, in the assay on human red blood cells (LTX-315 1200 μg/ml), the “Mean cell death (%)” value came out at 37.7%. Also, the “Mean EC50 (50% haemolysis)” value in the assay with human red blood cells (human red blood cells) is “greater than 1200 μg/ml”. Besides, in the assay on human red blood cells (human red blood cells, read-out: Mean EC50 (50% haemolysis)), the 50% effective concentration (EC50) is more than 833 µM. Also, in assay [1], the “Tumour growth in irradiated recipients of splenocytes from LTX-315-cured donors versus naive donors” value was “Inhibition of tumour growth was observed”. Further, the “Time to rounding up and total collapse of the cells” value in the assay with A375 cells [2] fell in the range of 15 to 60 min. For the same compound, the ROS generation entry in the assay on A375 cells [3] is “Significant amounts of ROS were generated”.

The values above are taken from patent publication US11123398B2, “Chemotherapeutic combinations of cationic antimicrobial peptides and chemotherapeutics” (LYTIX BIOPHARMA AS, priority 2014, dated 2021).
